The source of these data is patent US20260306642A1, “STAT DEGRADERS AND USES THEREOF” (Recludix Pharma, Inc., priority 2023, published 2026).

Molecules are shown by their SMILES. Read-outs that look alike come from different tables or passages of the source. Bounds are passed on as bounds.

For one test, the target named is T1, STAT6 (Homo sapiens, UniProt P42226).
T1 construct: Recombinant STAT6 protein (STAT6(W123-T658))
T1 sequence (P42226 123-658): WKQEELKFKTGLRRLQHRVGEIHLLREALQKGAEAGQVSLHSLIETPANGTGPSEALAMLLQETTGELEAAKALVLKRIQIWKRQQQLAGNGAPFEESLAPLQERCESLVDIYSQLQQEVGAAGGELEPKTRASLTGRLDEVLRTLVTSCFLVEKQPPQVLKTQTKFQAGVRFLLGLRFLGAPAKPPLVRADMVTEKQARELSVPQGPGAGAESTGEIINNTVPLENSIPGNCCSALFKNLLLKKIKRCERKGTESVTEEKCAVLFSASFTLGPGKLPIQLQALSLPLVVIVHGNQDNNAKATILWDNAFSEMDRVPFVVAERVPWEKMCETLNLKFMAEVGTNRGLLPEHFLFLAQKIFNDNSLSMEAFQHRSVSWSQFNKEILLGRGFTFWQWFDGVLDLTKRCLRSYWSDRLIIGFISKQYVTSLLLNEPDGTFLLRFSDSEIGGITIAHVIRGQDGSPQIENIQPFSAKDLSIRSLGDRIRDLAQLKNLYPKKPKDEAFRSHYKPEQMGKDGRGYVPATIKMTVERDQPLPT
The test is described as follows: STAT6 Fluorescence Polarization (FP) Assay. The test is classed as binding. How it is done: An FP assay was developed to determine IC50 values for test substances. Recombinant STAT6 protein (STAT6(W123-T658)) at 250 nM was combined with a fluorescently labeled, phosphotyrosine peptide probe (5-FAM-ApYKPFQDLI-NH2) at 2 nM in FP buffer (10 mM HEPES pH 7.4, 50 mM NaCl, 1 mM EDTA, 0.05% Tween 20, 2 mM DTT). 50 μL of STAT6-probe mixture was added to serial diluted compounds in black, 96-well plates (Greiner BioOne 655076) to a final concentration of 1% DMSO. Reaction components were mixed, and FP was measured after 45-minute incubation at room temperature using a Tecan Spark multimode plate reader. FP signal (mP) was plotted against the log concentration of the test substances and IC50 values were calculated by nonlinear regression analysis using GraphPad Prism software. For STAT6 FP assay, A=≤300 nM; B=>300-3000 nM; C=>3-30 μM; and D=>30 μM.
For orientation: Fluorescence polarisation rises when a labelled molecule tumbles more slowly, as on binding a larger partner.

The next test concerns the target pSTAT3 (Homo sapiens, UniProt P40763). The test is described as follows: MSD-pSTAT-PBMC Assay (pSTAT3, IL-6 stimulated). Format: cell-based. From the text:
Cryopreserved Peripheral Blood Mononuclear Cells (PBMC) are from AllCells. Recombinant Human IL-4 and IL-6 are from Peprotech. Mouse monoclonal anti-STAT3 antibody, rabbit monoclonal anti-pY705-STAT3 antibody, rabbit monoclonal Anti-pY641-STAT6 antibody, and lysis buffer are from Cell Signaling Technology (CST). Mouse monoclonal anti-STAT6 antibody is from BioLegend. Assay plates, blocker, and anti-rabbit secondary antibody are from Meso Scale Discovery (MSD).
Cryopreserved PBMCs were thawed out and allowed to recover overnight in IMDM+10% heat-inactivated FBS prior to plating 50,000 (STAT3) or 25,000 (STAT6) cells per well in 96-well U-bottom tissue culture plates. Cells were treated with compound for 3 hrs, then stimulated with 10 ng/mL IL-6 (STAT3) or 1 ng/mL IL-4 (STAT6) for 10 min. Cells were then spun down and washed with ice-cold PBS prior to lysing the cell pellet with 1× lysis buffer (CST) with 1× HALT protease and phosphatase inhibitor cocktail (Thermo). Lysates were transferred to and incubated overnight at 4° C. with shaking in QuickPlex 96-well high bind assay plates (MSD) pre-coated overnight with 30 μL per well of […] mouse monoclonal anti-STAT3 antibody (STAT3) or 2 μg/mL mouse monoclonal anti-STAT6 antibody (STAT6) in 1× PBS, and pre-blocked for 1 hour with 3% Blocker-A (MSD). Captured protein in the assay plates were then washed and probed with 25 μL per well of […] rabbit monoclonal anti-pY705-STAT3 antibody (STAT3) or […] rabbit monoclonal Anti-pY641-STAT6 antibody (STAT6) in 1% Blocker-A for 1 hour at room temperature with shaking, then washed and probed with 25 ul per well of 1 ug/ml Sulfo-TAG Labeled Goat Anti-Rabbit Antibody (MSD) in 1% Blocker-A for 1 hour at room temperature with shaking. Assay plates were then washed and 150 μL of 1× Read Buffer-T (MSD) was added to each well prior to reading on an SQ120 MSD Plate Reader. Assay signal from each sample was subtracted by the signal from unstimulated control wells and normalized to DMSO control wells. IC50 values were calculated using Graph Pad Prism Dose-Response Nonlinear Regression with variable slope. For both pSTAT3 and pSTAT6 A=≤100 nM; B=>100-1000 nM; C=>1000-3000 nM; and D=>3 μM.

The target in another test is T2, STAT3 (Homo sapiens, UniProt P40763).
T2 construct: Recombinant STAT3 protein (STAT3(G127-I722))
T2 sequence (P40763 127-722): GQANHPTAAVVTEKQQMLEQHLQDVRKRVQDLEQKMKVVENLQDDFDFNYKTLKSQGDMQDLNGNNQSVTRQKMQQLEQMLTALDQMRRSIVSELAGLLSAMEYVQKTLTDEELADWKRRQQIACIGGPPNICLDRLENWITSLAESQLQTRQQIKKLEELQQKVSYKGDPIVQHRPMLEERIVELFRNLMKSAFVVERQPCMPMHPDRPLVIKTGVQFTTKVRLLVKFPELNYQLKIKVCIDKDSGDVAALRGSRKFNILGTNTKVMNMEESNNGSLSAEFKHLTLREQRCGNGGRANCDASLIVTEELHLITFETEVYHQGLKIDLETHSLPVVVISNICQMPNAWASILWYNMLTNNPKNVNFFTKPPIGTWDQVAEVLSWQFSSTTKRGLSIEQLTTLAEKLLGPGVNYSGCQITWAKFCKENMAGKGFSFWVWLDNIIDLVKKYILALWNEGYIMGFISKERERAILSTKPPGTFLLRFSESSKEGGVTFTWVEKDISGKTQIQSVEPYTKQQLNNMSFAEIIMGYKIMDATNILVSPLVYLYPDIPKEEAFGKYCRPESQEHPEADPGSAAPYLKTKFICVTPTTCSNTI
The experiment in a line: STAT3 Fluorescence Polarization (FP) Assay. Format: binding. How it is done: An FP assay was developed to determine IC50 values for test substances.
Recombinant STAT3 protein (STAT3(G127-I722)) at 25 nM was combined with a fluorescently labeled, phosphotyrosine peptide probe (5-FAM-GpYLPQTV-NH2) at 2 nM in FP buffer (10 mM HEPES pH 7.4, 50 mM NaCl, 1 mM EDTA, 0.05% Tween 20, 2 mM DTT). 50 μL of STAT3-probe mixture was added to serial diluted compounds in black, 96-well plates (Greiner BioOne 655076) to a final concentration of 1% DMSO. Reaction components were mixed, and FP was measured after 45-minute incubation at room temperature using a Tecan Spark multimode plate reader. FP signal (mP) was plotted against the log concentration of the test substances and IC50 values were calculated by nonlinear regression analysis using GraphPad Prism software. For STAT3 FP assay, A=≤100 nM; B=>100-1000 nM; C=>1-10 μM; and D=>10 μM.

Setting [1] is: compound 3 hrs, then 10 ng/mL IL-6 10 min, pY705-STAT3, read-out: pSTAT3 IC50.
[2] abbreviates: read-out: pSTAT3 IC50, compound 3 hrs, then 10 ng/mL IL-6 10 min, pY705-STAT3.

Sequence of pSTAT3 (P40763 whole entry): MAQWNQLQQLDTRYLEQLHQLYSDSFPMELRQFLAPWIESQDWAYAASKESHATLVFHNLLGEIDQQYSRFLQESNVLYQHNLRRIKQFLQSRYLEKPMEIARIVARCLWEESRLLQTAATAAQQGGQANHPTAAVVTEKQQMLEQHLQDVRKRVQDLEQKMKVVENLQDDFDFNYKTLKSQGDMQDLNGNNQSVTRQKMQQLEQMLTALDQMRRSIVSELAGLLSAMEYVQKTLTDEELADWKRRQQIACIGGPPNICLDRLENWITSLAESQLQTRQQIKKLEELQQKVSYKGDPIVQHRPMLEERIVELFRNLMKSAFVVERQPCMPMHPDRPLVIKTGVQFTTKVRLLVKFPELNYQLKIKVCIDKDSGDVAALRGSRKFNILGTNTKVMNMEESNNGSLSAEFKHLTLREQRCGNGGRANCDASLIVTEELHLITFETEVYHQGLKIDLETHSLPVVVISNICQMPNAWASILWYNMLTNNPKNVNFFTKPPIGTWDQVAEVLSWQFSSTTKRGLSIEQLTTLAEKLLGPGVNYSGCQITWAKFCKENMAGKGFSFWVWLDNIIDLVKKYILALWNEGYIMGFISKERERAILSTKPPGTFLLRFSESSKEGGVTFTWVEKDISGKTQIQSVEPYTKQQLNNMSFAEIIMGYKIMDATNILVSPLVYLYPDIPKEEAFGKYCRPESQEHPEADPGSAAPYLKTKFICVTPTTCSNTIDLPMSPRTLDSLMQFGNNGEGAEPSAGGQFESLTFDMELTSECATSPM

For the compound `Cc1ncsc1-c1ccc(CNC(=O)[C@@H]2C[C@@H](O)CN2C(=O)[C@@H](NCCCCOc2ccncc2C2CN(C(=O)[C@@H]3CC[C@@H]4CCC[C@H](NC(=O)c5cc6cc(C(F)(F)P(=O)(O)O)ccc6s5)C(=O)N43)C2)C(C)(C)C)cc1` [Compound 2, (difluoro(2-(((3S,6S,9aS)-3-(3-(4-(4-(((S)-1-((2S,4R)-4-hydroxy-2-((4-(4-methylthiazol-5-yl)benzyl)carbamoyl)pyrrolidin-1-yl)-3,3-dimethyl-1-oxobutan-2-yl)amino)butoxy)pyridin-3-yl)azetidine-1-carbonyl)-5-oxooctahydro-1H-pyrrolo[1,2-a]azepin-6-yl)carbamoyl)benzo[b]thiophen-5-yl)methyl)phosphonic acid], the IC50 against STAT6 is 3 to 30 µM; on pSTAT3 (setting [1]) it was greater than 3 µM; at STAT3, less than 0.1 µM.
`Cc1ncsc1-c1ccc(CNC(=O)[C@@H]2C[C@@H](O)CN2C(=O)[C@@H](NC(=O)C2CCN(c3ccncc3C3CN(C(=O)[C@@H]4CC[C@@H]5CCC[C@H](NC(=O)c6cc7cc(C(F)(F)P(=O)(O)O)ccc7s6)C(=O)N54)C3)CC2)C(C)(C)C)cc1` [Compound 8, (difluoro(2-(((3S,6S,9aS)-3-(3-(4-(4-(((S)-1-((2S,4R)-4-hydroxy-2-((4-(4-methylthiazol-5-yl)benzyl)carbamoyl)pyrrolidin-1-yl)-3,3-dimethyl-1-oxobutan-2-yl)carbamoyl)piperidin-1-yl)pyridin-3-yl)azetidine-1-carbonyl)-5-oxooctahydro-1H-pyrrolo[1,2-a]azepin-6-yl)carbamoyl)benzo[b]thiophen-5-yl)methyl)phosphonic acid]: the IC50 against STAT6 is 0.3 to 3 µM; on pSTAT3 (setting [1]), 1 to 3 µM; against STAT3, less than 0.1 µM.
As for `O=C1CCC(c2ccc(OCCOc3ccncc3C3CN(C(=O)[C@@H]4CC[C@@H]5CCC[C@H](NC(=O)c6cc7cc(C(F)(F)P(=O)(O)O)ccc7s6)C(=O)N54)C3)cc2)C(=O)N1` (stereo partly drawn) [Compound 9, ((2-(((3S,6S,9aS)-3-(3-(4-(2-(4-(2,6-dioxopiperidin-3-yl)phenoxy)ethoxy)pyridin-3-yl)azetidine-1-carbonyl)-5-oxooctahydro-1H-pyrrolo[1,2-a]azepin-6-yl)carbamoyl)benzo[b]thiophen-5-yl)difluoromethyl)phosphonic acid], the IC50 was 3 to 30 µM on STAT6, greater than 3 µM at pSTAT3 (setting [1]) and less than 0.1 µM against STAT3.
For the compound `O=C1CCC(c2ccc(OCCOCCOc3ccncc3C3CN(C(=O)[C@@H]4CC[C@@H]5CCC[C@H](NC(=O)c6cc7cc(C(F)(F)P(=O)(O)O)ccc7s6)C(=O)N54)C3)cc2)C(=O)N1` (stereo partly drawn) [Compound 11, ((2-(((3S,6S,9aS)-3-(3-(4-(2-(2-(4-(2,6-dioxopiperidin-3-yl)phenoxy)ethoxy)ethoxy)pyridin-3-yl)azetidine-1-carbonyl)-5-oxooctahydro-1H-pyrrolo[1,2-a]azepin-6-yl)carbamoyl)benzo[b]thiophen-5-yl)difluoromethyl)phosphonic acid], the IC50 against STAT6 is 3 to 30 µM; at pSTAT3 (setting [1]) it was greater than 3 µM; against STAT3, less than 0.1 µM.
For `CN(CCOc1ccc(C2CCC(=O)NC2=O)cc1)c1ccncc1C1CN(C(=O)[C@@H]2CC[C@@H]3CCC[C@H](NC(=O)c4cc5cc(C(F)(F)P(=O)(O)O)ccc5s4)C(=O)N32)C1` (stereo partly drawn) [Compound 21, ((2-(((3S,6S,9aS)-3-(3-(4-((2-(4-(2,6-dioxopiperidin-3-yl)phenoxy)ethyl)(methyl)amino)pyridin-3-yl)azetidine-1-carbonyl)-5-oxooctahydro-1H-pyrrolo[1,2-a]azepin-6-yl)carbamoyl)benzo[b]thiophen-5-yl)difluoromethyl)phosphonic acid], the results for the IC50 at STAT6, at pSTAT3 (setting [1]) and against STAT3 were 3 to 30 µM, greater than 3 µM and less than 0.1 µM, respectively.
Regarding `O=C1CCC(c2ccc(OCC(=O)N3CCN(c4ccncc4C4CN(C(=O)[C@@H]5CC[C@@H]6CCC[C@H](NC(=O)c7cc8cc(C(F)(F)P(=O)(O)O)ccc8s7)C(=O)N65)C4)CC3)cc2)C(=O)N1` (stereo partly drawn) [Compound 28, ((2-(((3S,6S,9aS)-3-(3-(4-(4-(2-(4-(2,6-dioxopiperidin-3-yl)phenoxy)acetyl)piperazin-1-yl)pyridin-3-yl)azetidine-1-carbonyl)-5-oxooctahydro-1H-pyrrolo[1,2-a]azepin-6-yl)carbamoyl)benzo[b]thiophen-5-yl)difluoromethyl)phosphonic acid], the IC50 was 3 to 30 µM at STAT6, greater than 3 µM at pSTAT3 (setting [1]) and less than 0.1 µM at STAT3.
For the compound `O=C(COc1cccc2c1C(=O)N(C1CCC(=O)NC1=O)C2=O)NCCOCCOCCC(=O)NC1(c2ccccn2)CN(C(=O)[C@@H]2CC[C@H]3CCCC[C@H](NC(=O)c4cc5cc(C(F)(F)P(=O)(O)O)ccc5s4)C(=O)N32)C1` (stereo partly drawn) [Compound 30, ((2-(((3S,6S,10aR)-3-(3-(3-(2-(2-(2-((2-(2,6-dioxopiperidin-3-yl)-1,3-dioxoisoindolin-4-yl)oxy)acetamido)ethoxy)ethoxy)propanamido)-3-(pyridin-2-yl)azetidine-1-carbonyl)-5-oxodecahydropyrrolo[1,2-a]azocin-6-yl)carbamoyl)benzo[b]thiophen-5-yl)difluoromethyl)phosphonic acid], the IC50 was 3 to 30 µM at STAT6, greater than 3 µM at pSTAT3 (setting [2]) and less than 0.1 µM at STAT3.
`Cc1ncsc1-c1ccc([C@H](C)NC(=O)[C@@H]2C[C@@H](O)CN2C(=O)[C@@H](NC(=O)COCCOCC(=O)NC2(c3ccccn3)CN(C(=O)[C@@H]3CC[C@H]4CCCC[C@H](NC(=O)c5cc6cc(C(F)(F)P(=O)(O)O)ccc6s5)C(=O)N43)C2)C(C)(C)C)cc1` [Compound 31, (difluoro(2-(((3S,6S,10aR)-3-(3-(2-(2-(2-(((S)-1-((2S,4R)-4-hydroxy-2-(((S)-1-(4-(4-methylthiazol-5-yl)phenyl)ethyl)carbamoyl)pyrrolidin-1-yl)-3,3-dimethyl-1-oxobutan-2-yl)amino)-2-oxoethoxy)ethoxy)acetamido)-3-(pyridin-2-yl)azetidine-1-carbonyl)-5-oxodecahydropyrrolo[1,2-a]azocin-6-yl)carbamoyl)benzo[b]thiophen-5-yl)methyl)phosphonic acid]: the IC50 on STAT6 is 3 to 30 µM; at pSTAT3 (setting [2]) it was greater than 3 µM; against STAT3, less than 0.1 µM.
